Test results as given in US5208243A, “5-isoquinolinesulfonamides” (Adir et Compagnie, priority 1991, dated 1993).
Where a name gives a salt, the structure may show the parent alone. Read-outs that look alike come from different tables or passages of the source.

Key:
rat aortas = test: Contraction of rat aortas induced by potassium depolarization (hyperpotassium medium); set-up: species or system WISTAR rat; conditions: read-out: IC50 (concentration inhibiting by 50% the contraction of rat aortas induced by potassium depolarization)
Source text: The rings are linked to a STATHAM tension sensor (UC2-GOULD).

rabbit aortas = test: Contraction of rabbit aortas induced by noradrenaline in a medium without calcium; set-up: species or system New Zealand rabbit; conditions: Oryctolagus cuniculus, 0.5 h, rabbit aorta, incubated 30 minutes; for inhibition at 1 µM: compound 10^-6 M; for inhibition at 0.1 µM: compound 10^-7 M
Procedure: (§1) Studies are carried out on rings, 3 mm in length, […] The vascular rings are immersed in a normal physiological solution or in a physiological solution lacking calcium (+0.2 mM of the chelating agent EGTA), which is thermostatically regulated at 37° C. and aerated with a 95% O2 +5% CO2 mixture. The rings are linked to a STATHAM tension sensor (UC2-GOULD). The optimal tension for each vessel is applied and a stabilization period of 90 min is observed for the preparations. b) Antivasoconstrictive activity of the compounds of the invention in a medium without calcium.

rabbit aorta [1] = test: Vascular contraction of rabbit aorta induced by PDGF; set-up: species or system New Zealand rabbit; conditions: Oryctolagus cuniculus, 10^-5 M, preincubated 15 minutes
Procedure: as §1, with “a)” for “b)”, “physiological medium.” for “medium without calcium.”

rabbit aorta [2] = test: Contraction of rabbit aorta induced by angiotensin II in a medium without calcium; set-up: species or system New Zealand rabbit; conditions: Oryctolagus cuniculus, 10^-5 M, medium lacking calcium
Procedure: as §1

pig coronary artery = test: Vascular contraction of pig coronary artery induced by acetylcholine; conditions: Sus scrofa, 10^-5 M, preincubated 15 minutes
Procedure: Studies are carried out on rings, 3 mm in length, - or of coronary arteries from pigs anesthetized with nesdonal (8 mg/kg intravenously). The vascular rings are immersed in a normal physiological solution or in a physiological solution lacking calcium (+0.2 mM of the chelating agent EGTA), which is thermostatically regulated at 37° C. and aerated with a 95% O2 +5% CO2 mixture. The rings are linked to a STATHAM tension sensor (UC2-GOULD). The optimal tension for each vessel is applied and a stabilization period of 90 min is observed for the preparations. a) Antivasoconstrictive activity of the compounds of the invention in a physiological medium.

guinea pig left auricle [3] = test: Ouabain intoxication of guinea pig left auricle; conditions: compound 10^-6 M
rabbit aorta [4] = test: Contraction of rabbit aorta induced by phorbol ester in a normal physiological medium; set-up: species or system New Zealand rabbit; conditions: Oryctolagus cuniculus, TPA 10^-5 M, read-out: IC50, phorbol ester stimulus
Procedure: as §1, with “a)” for “b)”, “physiological medium.” for “medium without calcium.”

rabbit aorta [5] = test: Contraction of rabbit aorta induced by endothelin in a normal physiological medium; set-up: species or system New Zealand rabbit; conditions: Oryctolagus cuniculus, read-out: IC50, endothelin stimulus
Procedure: as §1, with “a)” for “b)”, “physiological medium.” for “medium without calcium.”

rabbit aorta [6] = test: Contraction of rabbit aorta induced by noradrenaline in a normal physiological medium; set-up: species or system New Zealand rabbit; conditions: Oryctolagus cuniculus, noradrenaline 10^-6 M, read-out: IC50, noradrenaline stimulus
Procedure: as §1, with “a)” for “b)”, “physiological medium.” for “medium without calcium.”

isolated heart = test: Isolated heart subjected to an ischemia-reperfusion sequence; set-up: species or system WISTAR rat; conditions: Rattus norvegicus, concentration of 810^-7 M (so in the source)
Procedure: b) Protective effect of the compounds of the invention on an isolated heart subjected to an ischemia-reperfusion sequence.
The heart is removed from WISTAR rats (325-375 g). The heart is rapidly perfused according to the technique of LANGENDORFF at a constant pressure of 101.310^2 Pa and electrically stimulated at 5 Hz.
The heart is subjected to a 30 min ischemia (produced by complete stoppage of the perfusion) followed by a 60 min reperfusion. The test compounds are incubated for 15 min before the ischemia.
Isovolumetric contractions are recorded by means of a polyethylene ballonet linked to a pressure sensor (P23-GOULD) introduced into the left ventricle and inflated so as to obtain a diastolic pressure of between 6.710^2 and 13.310^2 Pa.

rabbit mesenteric artery = test: Contraction of rabbit mesenteric artery induced by electrical stimulation; set-up: species or system New Zealand rabbit; conditions: Oryctolagus cuniculus, normal physiological medium
Procedure: as §1, with “a)” for “b)”, “physiological medium.” for “medium without calcium.”

rabbit aorta [7] = test: Contraction of rabbit aorta induced by phorbol ester in a medium without calcium; set-up: species or system New Zealand rabbit; conditions: Oryctolagus cuniculus, 10^-5 M, medium lacking calcium
Procedure: as §1

guinea pig left auricle [8] = test: Veratridine intoxication of guinea pig left auricle; conditions: compound 10^-5 M
Procedure: a) Effect of the compounds of the invention on the intoxication of guinea pig left auricle.
The left auricles are removed from guinea pigs (350-450 g) anesthetized with sodium pentobarbital (30 mg/kg). The auricles are attached to a STATHAM tension sensor (UC2-GOULD) and the initial tension applied is 0.5 grams.
The auricles are electrically stimulated at 1 Hz by means of platinum electrodes. The intoxications are produced either by the addition of ouabain (10^-6 M) or by the addition of veratridine (10^-5 M). The test compounds are added 15 minutes before adding the toxic agent.

[9] = tested on: smooth muscle cells of the aorta; test: Proliferation rate after endothelial denudation of the aorta (3H-thymidine incorporation); format: in vivo, WISTAR rat; conditions: 10 mg/kg orally, daily
Procedure: D/ Effect of the compounds of the invention on the proliferation rate after endothelial denudation. […] After pretreatment for 6 days (J6), denudation of the aortic endothelium of the animals is performed according to the following method: After anesthetizing the animal with methohexital (Brietal, 60 mg/kg intraperitoneally), an embolectomy probe (Fogarty 2F) is introduced into the aorta through the left carotid. Aortic deendothelialization is achieved by three successive passages of the probe. Three days after the endothelial denudation (J9), the rats are sacrificed and the aorta is removed, incubated in a physiological solution for 1 hour at 37° C., and then transferred into a ^3 H-thymidine-enriched Krebs- Henseleit solution (specific activity: […]) for 1 hour at 37° C. This is followed by a one-hour post-incubation in a Krebs-Henseleit solution lacking ^3 H-thymidine. After washing in a Tris-EDTA buffer, the proliferation rate is calculated from the incorporation of 3H-thymidine. [drawing 17]

rabbit aorta [10] = test: Contraction of rabbit aorta induced by endothelin in a medium without calcium; set-up: species or system New Zealand rabbit; conditions: Oryctolagus cuniculus, 10^-5 M, medium lacking calcium
Procedure: as §1

Rabbit iliac artery = test: Contraction of rabbit iliac artery induced by caffeine in a medium without calcium; set-up: species or system New Zealand rabbit; conditions: Oryctolagus cuniculus, 10^-5 M, medium lacking calcium
Procedure: as §1

CN(C1CCN(CCCCOc2ccc(C#N)cc2)CC1)S(=O)(=O)c1cccc2cnccc12 [Example 8, N-Methyl N-{1-[4-(p-cyanophenoxy)butyl]4-piperidyl}-5-isoquinolinesulfonamide dihydrochloride]
IC50 (rat aortas; 80 mM KCl, 37 mM NaCl): 0.95 µM

CN(C1CCN(CCCCOc2ccc(Cl)cc2)CC1)S(=O)(=O)c1cccc2cnccc12 [Example 6, N-Methyl-N-{1-[4-(p-chlorophenoxy)butyl4-piperidyl}-5-isoquinolinesulfonamide hydrochloride]
inhibition at 1 µM (rabbit aortas): 18%
IC50 (rat aortas; 80 mM KCl, 37 mM NaCl): 1.1 µM

O=S(=O)(NC1CCN(CCCCOc2ccc(F)cc2)CC1)c1cccc2cnccc12 [Example 13, N-{1-[4-(p-fluorophenoxy)butyl]4-piperidyl)}-5-isoquinolinesulfonamide dihydrochloride]
inhibition at 1 µM (rabbit aortas): 42%
IC50 (rat aortas; 80 mM KCl, 37 mM NaCl): 2.9 µM

CN(C1CCN(CCCCOc2ccc([N+](=O)[O-])cc2)CC1)S(=O)(=O)c1cccc2cnccc12 [Example 2, N-Methyl-N-{1-[4-(p-nitrophenoxy)butyl]-4-piperidyl}-5-isoquinolinesulfonamide fumarate]
inhibition at 1 µM (rabbit aortas): 12%
IC50 (rat aortas; 80 mM KCl, 37 mM NaCl): 1.3 µM

CN(C1CCN(CCCCSc2ccc(F)cc2)CC1)S(=O)(=O)c1cccc2cnccc12 [Example 12, N-Methyl-N-{1-[4-(p-fluorophenylthio)butyl]-4-piperidyl}-5-isoquinolinesulfonamide dihydrochloride]
inhibition at 1 µM (rabbit aortas): 19%
IC50 (rat aortas; 80 mM KCl, 37 mM NaCl): 1.3 µM

CN(CC1CCN(CCCOc2ccccc2)CC1)S(=O)(=O)c1cccc2cnccc12 [Example 19, N-Methyl-N-{[1-[3-(phenoxy)propyl]-4-piperidyl]methyl}-5-isoquinolinesufonamide]
inhibition at 1 µM (rabbit aortas): 67%
inhibition at 0.1 µM (rabbit aortas): 31%
IC50 (rat aortas; 80 mM KCl, 37 mM NaCl): 2.8 µM

O=S(=O)(NCC1CCN(CCCOc2ccc(F)cc2)CC1)c1cccc2cnccc12 [Example 15, N-{[1-[3-(p-Fluorophenoxy)propyl]-4-piperidyl]methyl}-5-isoquinolinesulfonamide]
inhibition at 1 µM (rabbit aortas): 59%
IC50 (rat aortas; 80 mM KCl, 37 mM NaCl): 3.5 µM

CN(C1CCN(CCCCOc2ccc(F)cc2)CC1)S(=O)(=O)c1cccc2cnccc12 [Example 1, N-Methyl-N-{1-[4-(pfluorophenoxy)butyl]-4-piperidyl}-5-isoquinolinesulfonamide fumarate]
inhibition at 10 µM (rabbit aorta [1]): 20%
inhibition at 10 µM (rabbit aorta [2]): 40%
inhibition at 10 µM (pig coronary artery): 61%
inhibition at 1 µM (rabbit aortas): 61%
% contraction (guinea pig left auricle [3]; 10 min): 192 ± 29%
Contracture (%) (guinea pig left auricle [3]; 15 min): 0%
% contraction (guinea pig left auricle [3]; 30 min): 187.5 ± 30%
Contracture (%) (guinea pig left auricle [3]; 30 min): 1.9 ± 1.9%
% contraction (guinea pig left auricle [3]; 60 min): 148.3 ± 33%
Contracture (%) (guinea pig left auricle [3]; 60 min): 18 ± 7%
IC50 (rabbit aorta [4]): 300 µM
IC50 (rat aortas): 0.85 µM
IC50 (rabbit aorta [5]): 8.1 µM
IC50 (rabbit aorta [6]): 1.4 µM
inhibition at 0.8 µM (isolated heart; 0.5 h, read-out: reduction of the contracture developed after 30 minutes of ischemia, relative to control): 47%
activation at 0.8 µM (isolated heart; 1 h, end of 60 minutes of reperfusion, read-out: improvement of the functional recuperation of the hearts relative to control): 55%
IC50 (rabbit mesenteric artery): 0.4 µM
inhibition at 10 µM (rabbit aorta [7]): 66%
% contraction (guinea pig left auricle [8]; 5 min): 158 ± 11%
% contraction (guinea pig left auricle [8]; 15 min): 60.5 ± 13%
Contracture (%) (guinea pig left auricle [8]; 15 min): 23.5 ± 6.2%
Contracture (%) (guinea pig left auricle [8]; 30 min): 52.2 ± 4.7%
% contraction (guinea pig left auricle [8]; 60 min): 20.5 ± 4.6%
Contracture (%) (guinea pig left auricle [8]; 60 min): 60.7 ± 4.4%
reduction of the proliferation of smooth muscle cells [9]: 40%
inhibition at 10 µM (rabbit aorta [10]): 42%
inhibition at 10 µM (Rabbit iliac artery): 30%

CN(C1CCN(CCCCOc2ccccc2)CC1)S(=O)(=O)c1cccc2cnccc12 [Example 3, N-Methyl-N-{1-[4-(phenoxy)butyl]4-piperidyl}-5 isoquinolinesulfonamide fumarate]
inhibition at 1 µM (rabbit aortas): 47%
IC50 (rat aortas; 80 mM KCl, 37 mM NaCl): 1.7 µM

CN(CC1CCN(CCCOc2ccc(F)cc2)C1)S(=O)(=O)c1cccc2cnccc12 (stereo not shown) [Example 22, N-Methyl-N-{[1-[3-(p-fluorophenoxy)propyl]-3-pyrrolidinyl]methyl}-5-isoquinolinesulfonamide dihydrochloride]
inhibition at 1 µM (rabbit aortas): 82%
inhibition at 0.1 µM (rabbit aortas): 43%
IC50 (rat aortas; 80 mM KCl, 37 mM NaCl): 3.6 µM

CN(CC1CCN(CCCCOc2ccc(F)cc2)C1)S(=O)(=O)c1cccc2cnccc12 (stereo not shown) [Example 21, N-Methyl-N-{[1-[4-(p-fluorophenoxy)butyl]-3-pyrrolidinyl]methyl}-5-isoquinolinesulfonamide dihydrochloride]
inhibition at 1 µM (rabbit aortas): 73%
inhibition at 0.1 µM (rabbit aortas): 17%
IC50 (rat aortas; 80 mM KCl, 37 mM NaCl): 1.9 µM

CCN(C1CCN(CCCCOc2ccc(F)cc2)CC1)S(=O)(=O)c1cccc2cnccc12 [Example 26, N-Ethyl-N-{1-[4-(p-fluorophenoxy)butyl]-4-piperidyl}-5-isoquinolinesulfonamide dihydrochloride]
inhibition at 1 µM (rabbit aortas): 26%
IC50 (rat aortas; 80 mM KCl, 37 mM NaCl): 5.3 µM

CN(CC1CCN(CCCNc2ccc(F)cc2)CC1)S(=O)(=O)c1cccc2cnccc12 [Example 25, N-Methyl-N-{1-[3-(p-fluorophenylamino)propyl]-4-piperidyl]methyl}-5-isoquinolinesulfonamide fumarate]
inhibition at 1 µM (rabbit aortas): 77%
inhibition at 0.1 µM (rabbit aortas): 22%

COc1ccc(OCCCCN2CCC(N(C)S(=O)(=O)c3cccc4cnccc34)CC2)cc1 [Example 7, N-Methyl-N-{1-[4-(p-methoxyphenoxy)butyl]-4-piperidyl}-5-isoquinolinesulfonamide hydrochloride]
inhibition at 1 µM (rabbit aortas): 13%
IC50 (rat aortas; 80 mM KCl, 37 mM NaCl): 1.9 µM

O=S(=O)(NCC1CCN(CCCNc2ccc(F)cc2)CC1)c1cccc2cnccc12 [Example 24, N-{[1-[3-(p-fluorophenylamino)propyl]-4-piperidyl]methyl}-5-isoquinolinesulfonamide fumarate]
inhibition at 1 µM (rabbit aortas): 67%
inhibition at 0.1 µM (rabbit aortas): 38%
IC50 (rat aortas; 80 mM KCl, 37 mM NaCl): 4.5 µM
